Source: US5334716A, “Heterocyclic derivatives” (Fujisawa Pharmaceutical Co., Ltd., priority 1991, dated 1994)

Molecular target: prostatic testosterone 5α-reductase
Test: Inhibitory activity on testosterone 5α-reductase in rats
Format: biochemical, rat (Spraque-Dawley)
Details: rat ventral prostate 5α-reductase suspension, 3H-testosterone 2.2×10^-9 M, 50 μM NADPH, pH 6.5, 37° C., 30 minutes
Description: [2] Inhibitory activity on testosterone 5α-reductase in rats
1,2,6,7-^3 H-Testosterone (85-105 Ci/mmol) is a mixture of 1,2,6,7-^3 H-testosterone and testosterone which includes 85-105 Ci of 1,2,6,7-^3 H-testosterone per mmol of testosterone and is purchased from New England Nuclear, Boston, Mass., U.S.A.
Aquazol-2 (Aquazol-2 Universal LSC Cocktail): trademark, purchased from New England Nuclear, Boston, Mass., U.S.A. ii) Preparation of prostatic testosterone 5α-reductase
Mature Spraque-Dawley male rats (7-8 weeks old) were sacrificed by diethyl ether. The ventral prostates were dissected to be free of their capsules and their combined volume was measured by displacement in several milliliters of ice-cold medium A (0.32M sucrose, 0.1 mM dithiothreitol and 20 mM sodium phosphate, pH 6.5). Unless specified, all the following procedures were carried out at 0°-4° C. The prostates were drained, minced, and then homogenized in 3-4 tissue volumes of medium A with Pyrex-glass homogenizer. The homogenate was fractioned by differential centrifugations at […]. The resulting pellets were resuspended in medium A. The suspension (20-30 mg protein/ml) was stored at -80° C. […]
iii) Testosterone 5α-reductase assay
The reaction solution contains 1 mM dithiothreitol, 40 mM sodium phosphate pH 6.5, 50 μM NADPH, 1,2,6,7-^3 H-testosterone/testosterone (2.2×10^-9 M) and the suspension prepared above (0.8 mg of protein) in a total volume of 565 μl. Test Compound was added in 10 μl of 10% ethanol whereas control tubes received the same volume of 10% ethanol. The reaction was started with the addition of the enzyme suspension. After incubation at 37° C. for 30 minutes, the reaction was extracted with 1 ml of ethyl acetate. Fifty μl of ethyl acetate phase was chromatographed on a Merck silica plastic sheet Kieselgel 60 F254, using ethyl acetate: cyclohexane (1:1) as the developing solvent system. The plastic sheet was air dried and cut the testosterone and the 5α-dihydrotestosterone areas. The radioactivity was counted in 5 ml of Aquazol-2 in Packard scintillation counter (PACKARD TRI - CARB 4530), and an inhibitory ratio was calculated.

Row | Compound | IC50 [nM]
1 | CC(C)Cc1ccc(C(Oc2cccc(C(=O)c3cc(CCCC(=O)O)c4ccccn34)c2)c2ccc(CC(C)C)cc2)cc1 [(3), 4-[3-[3-[Bis(4-isobutylphenyl)methoxy]benzoyl]indolizin-1-yl]butyric acid] | 6.7
2 | CC(C)Cc1ccc(C(Nc2ccc(C(=O)c3cc(CCCC(=O)O)n4ccccc34)cc2)c2ccc(CC(C)C)cc2)cc1 [(2), 4-[1-[4-[Bis(4-isobutylphenyl)methylamino]benzoyl]indolizin-3-yl]butyric a cid] | 0.44
3 | CC(C)Cc1ccc(C(Nc2cccc(C(=O)c3cc(CCCC(=O)O)c4ccccn34)c2)c2ccc(CC(C)C)cc2)cc1 [Compound (1), 4-[3-[3-[Bis(4-isobutylphenyl)methylamino]benzoyl]indolizin-1-yl]butyric a cid] | 2.3
4 | CCC(Oc1ccc(C(=O)c2cc(CCCC(=O)O)n3ccccc23)cc1)c1ccc(CC(C)C)cc1 (centres unmarked) [(4), 4-[1-[4-[1-(4-Isobutylphenyl)propyloxy]benzoyl]indolizin-3-yl]butyric acid] | 0.55
5 | CCCCC(Oc1ccc(C(=O)c2cc(CCCC(=O)O)n3ccccc23)cc1)c1ccc(CC(C)C)cc1 (centres unmarked) [(5), 4-[1-[4-[1-(4-Isobutylphenyl)pentyloxy]benzoyl]indolizin-3-yl]butyricacid] | 1.8
